# Results reported in PMC2755569 (The Pediatric Infectious Disease Journal, 2009).
# Experiments:
# [1] = Steady-state plasma pharmacokinetics of LPV/RTV plus EFV, protocol P1058
# [2] = human, in vivo
# [3] = 15 South African children, median dose 352 mg/m^2 equivalent to 14 mg/kg; cited from earlier work
# [4] = children dosed according to body weight-adjusted dose recommendations; cited from earlier work
# [5] = range = 0.5- to 2.0-fold of target value; cited from earlier work
# clinical = conditions: human, in vivo
# [6] = median (range), steady state, LPV/RTV 300 mg/m^2 b.i.d. + EFV 350 mg/m^2 q.d., 15 patients
"AUC ([1]; human, plasma, oral, 350 mg/m2, AUC24, GM (90% CI), geometric mean (90% CI), EFV 350 mg/m^2 q.d. with LPV/RTV)","concentration at 24 h ([1]; human, plasma, oral, EstC24 hours, GM (90% CI), geometric mean (90% CI), EFV 350 mg/m^2 q.d. with LPV/RTV)",AUC lower compared with pediatric and adult patients [2],Cmin lower compared with pediatric and adult patients ([2]; 24 h),"AUC (clinical; 300 mg/m2, AUC (AUC12), GM (90% CI))","AUC (clinical; 300 mg/m2, AUCτ (AUC12))",Structure (SMILES),"CL (CL/F) [1, 6]",Patients with estimated Cmin <1 mg/L [3],Patients with plasma concentrations below the targeted range [4],Target GM (range) AUC24 [5],Target GM (range) C24 hours [5],Target GM (range) AUC12 [5],"concentration at 12 h ([1]; human, plasma, oral, Cmin (C12 h), median (range), LPV/RTV 300 mg/m^2 b.i.d. with EFV, 15 patients)","Tmax ([1]; median (range), steady state, LPV/RTV 300 mg/m^2 b.i.d. + EFV 350 mg/m^2 q.d., 15 patients, plasma)"
44100 ng·h/mL,800 ng/mL,30%,60%,,,"O=C1Nc2ccc(Cl)cc2[C@@](C#CC2CC2)(C(F)(F)F)O1 [EFV, efavirenz]",8.5 (2.3–22.9) L/h,40%,64%,64 (32–124) mg × h/L,1.8 (0.9 –3.6) mg/L,,,
,,,,91300 ng·h/mL,100000 ng·h/mL,"Cc1cccc(C)c1OCC(=O)N[C@@H](Cc1ccccc1)[C@@H](O)C[C@H](Cc1ccccc1)NC(=O)[C@H](C(C)C)N1CCCNC1=O [LPV, lopinavir]",,,,,,80 (40 –160) mg × h/L,,
,,,,,,"CC(C)c1nc(CN(C)C(=O)N[C@H](C(=O)N[C@@H](Cc2ccccc2)C[C@H](O)[C@H](Cc2ccccc2)NC(=O)OCc2cncs2)C(C)C)cs1 [RTV, ritonavir]",11.8 (2.0–264.8) L/h,,,,,,300 ng/mL,3.0 (1.0–8.1) hr
